We go through 4 molecules from US7321046B2, “Analogs of dictyostatin, intermediates therefor and methods of synthesis thereof” (University of Pittsburgh, priority 2002, dated 2008).

Molecules are shown by their SMILES.

The subject of experiment [1] is microtubules (tubulin polymer). As to the kind of experiment: Radiolabeled ligand binding assays. Conditions: test agent 4 μM; radiolabel 4.0 μM; 37° C. The method, then:
The abilities of test agents to inhibit the binding of radiolabeled forms of the microtubule stabilizers paclitaxel, discodermolide and epothilone B from tubulin polymer were determined.
[^3H]Paclitaxel, [^3H]discodermolide and [^14C]epothilone B solutions were prepared as 125 μM stock solutions in 50% DMSO. Radiolabeled compound (final concentration, 4.0 μM) and test agents at final concentrations noted in the text and tables were mixed in 50 μL of 4:1 (v/v) 0.75 M aqueous MSG/DMSO and warmed to 37° C. Meanwhile, a reaction mixture containing 0.75 M MSG, 2.5 μM tubulin, and 25 μM ddGTP was prepared and incubated at 37° C. for 30 min to form microtubuless. A 200 μL aliquot of the microtubule mixture was added to the drug mixtures, and incubation continued for 30 min at 37° C. Reaction mixtures were centrifuged in an Eppendorf 5417C centrifuge at 14,000 rpm for 20 min at room temperature. Radiolabel in the supernatants (100 μL) was determined by scintillation spectrometry.

Experiment [2] deals with 1A9/Ptx10 (Phe270 −> Val) β-tubulin mutant cells. Briefly: Antiproliferative assay (GI50, MTS), paclitaxel-resistant clone. The class given is cell-based, human. The conditions noted are these: Homo sapiens, 1A9/ptx-10, 72 h, read-out: GI50 ± S.D., 1A9/Ptx10 (Phe270 −> Val), 72 h incubation. Here is the method:
(§1) Representative analogs were examined for their antiproliferative activities against human ovarian carcinoma 1A9 cells and their paclitaxel-resistant mutants, 1A9/Ptx10 and 1A9/Ptx22.
(§2) The effects of dictyostatin and its analogs on growth inhibition of parental (A549) and paclitaxel-resistant (1A9/Ptx10 and Ptx22) ovarian adenocarcinoma cell lines were evaluated following the antiproliferative assay protocol as described earlier (Minguez et al., 2003; Choy et al., 2003; Lazo et al., 2001). Cells were maintained in RPMI medium with 10% FBS in it, plated in tissue culture plates, and allowed to grow for 48-72 h before transferring them into 96-well plates. Cells were allowed to attach and grow for 48 h in 96-well plates after which they were treated with either control (DMSO) or drug in triplicate/quadruplicate. Cells were incubated with the compounds for 72 h. Cells were treated with MTS reagent before reading the plate in a Dynamax plate reader for determining the cell number. The fifty percent growth inhibition values (GI50 values) were calculated for the compounds against all the three cell lines.

Experiment [3] has as its system 1A9/Ptx22 (Ala364 −> Thr) β-tubulin mutant cells. Described as above. Conditions: Homo sapiens, 1A9/ptx-22, 72 h, read-out: GI50 ± S.D., 1A9/Ptx22 (Ala364 −> Thr), 72 h incubation. The experiment is classed as cell-based, human. The method, then: as §1, §2
Experiment [4] deals with human ovarian carcinoma cells (1A9). Briefly: Antiproliferative assay (GI50, MTS). The class given is cell-based. The conditions noted are these: Homo sapiens, Ovarian carcinoma cell, 72 h, read-out: GI50 ± S.D., 1A9 parental cells, 72 h incubation. Here is the method:
as §1
as §2, with “The effects of dictyostatin and its analogs on growth inhibition of parental (A549) and paclitaxel-resistant (1A9/Ptx10 and Ptx22) ovarian adenocarcinoma cell lines were evaluated following the antiproliferative assay protocol as described earlier (Minguez et al., 2003; Choy et al., 2003; Lazo et al., 2001).” left out

For the molecule `CC(=O)O[C@@]12CO[C@@H]1C[C@H](O)[C@@]1(C)C(=O)[C@H](O)C3=C(C)[C@@H](OC(=O)[C@H](O)[C@@H](NC(=O)OC(C)(C)C)c4ccccc4)C[C@@](O)([C@@H](OC(=O)c4ccccc4)[C@H]21)C3(C)C` [docetaxel], in experiment [1], the “Percent inhibition of radiolabel from microtubules, [3H]Discodermolide” value (“Percent inhibition … [3H]Discodermolide” for short) was 8 ± 6 (3) %; the “Percent inhibition of radiolabel from microtubules, [3H]Paclitaxel” value is reported as 63 ± 8 (4) %; the “Percent inhibition of radiolabel from microtubules, [14C]Epothilone B” value was 36 ± 1 (3) %.
`C=C/C=C\[C@H](C)[C@H](O)[C@@H](C)[C@H](CC[C@H](C)C[C@@H](C)[C@@H](O[Si](C)(C)C(C)(C)C)[C@@H](C)/C=C\[C@H](C[C@H](O[Si](C)(C)C(C)(C)C)[C@@H](C)/C=C/C=C\C(=O)O)O[Si](C)(C)C(C)(C)C)O[Si](C)(C)C(C)(C)C` [Compound 107, (2Z,4E,6S,7S,9S,10Z,12S,13R,14R,16S,19S,20R,21S,22S,23Z)-7,9,13,19-tetrakis(tert-Butyldimethylsilyloxy)-21-hydroxy-6,12,14,16,20,22-hexamethylhexacosa-2,4,10,23,25-pentaenoic acid]: the GI50 in experiment [2], in experiment [3] and in experiment [4] was more than 500 nM in each case.
For `C/C(=C\c1csc(C)n1)[C@@H]1C[C@@H]2O[C@]2(C)CCC[C@H](C)[C@H](O)[C@@H](C)C(=O)C(C)(C)[C@@H](O)CC(=O)O1` [epothilone B], the “Percent inhibition … [3H]Discodermolide” value in experiment [1] came out at 14 ± 3%.
As to `C/C(=C\c1csc(C)n1)[C@@H]1C[C@@H]2O[C@@H]2CCC[C@H](C)[C@H](O)[C@@H](C)C(=O)C(C)(C)[C@@H](O)CC(=O)O1` [epothilone A], in experiment [1], the “Percent inhibition … [3H]Discodermolide” value is recorded as 6 ± 6 (3) %; the “Percent inhibition of radiolabel from microtubules, [3H]Paclitaxel” value is 53 ± 4 (4) %; the “Percent inhibition of radiolabel from microtubules, [14C]Epothilone B” value is recorded as 25 ± 3 (3) %.
